Assay results from ChEMBL document CHEMBL1201862, “PubChem BioAssay data set” (2004).
Calls of active or inactive are those of the source.

Tests used:
[1] = Luminescence Cell-Based Dose Confirmation HTS to Identify Activators of 5'UTR Stem-Loop Driven Alpha-Synuclein mRNA Translation in H4 Neuroglioblastoma Cells. [Related pubchem assays: 1829 (Project Summary), 1814 (Primary HTS)]; assay type: functional
H4 = experiment: Luminescence Cell-Based Dose Response HTS to Identify Activators of 5'UTR Stem-Loop Driven Prion Protein mRNA Translation in H4 Neuroglioblastoma Cells. [Related pubchem assays: 1829 (Project Summary), 1814 (Primary HTS)]; assay type: functional; details: Homo sapiens
[2] = Luminescence Cell-Based Dose Response HTS to Identify Activators of Luciferase Translation or Activity in H4 […] Cells. [Related pubchem assays: 1829 (Project Summary), 1814 (Primary HTS)]; assay type: functional
Cytochrome P450 2D6 = Cytochrome P450 2D6 (Homo sapiens, UniProt P10635);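 note: CYP2D6 member of a cytochrome P450 panel assay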
Chain of Cytochrome P450 2D6 (P10635 whole entry): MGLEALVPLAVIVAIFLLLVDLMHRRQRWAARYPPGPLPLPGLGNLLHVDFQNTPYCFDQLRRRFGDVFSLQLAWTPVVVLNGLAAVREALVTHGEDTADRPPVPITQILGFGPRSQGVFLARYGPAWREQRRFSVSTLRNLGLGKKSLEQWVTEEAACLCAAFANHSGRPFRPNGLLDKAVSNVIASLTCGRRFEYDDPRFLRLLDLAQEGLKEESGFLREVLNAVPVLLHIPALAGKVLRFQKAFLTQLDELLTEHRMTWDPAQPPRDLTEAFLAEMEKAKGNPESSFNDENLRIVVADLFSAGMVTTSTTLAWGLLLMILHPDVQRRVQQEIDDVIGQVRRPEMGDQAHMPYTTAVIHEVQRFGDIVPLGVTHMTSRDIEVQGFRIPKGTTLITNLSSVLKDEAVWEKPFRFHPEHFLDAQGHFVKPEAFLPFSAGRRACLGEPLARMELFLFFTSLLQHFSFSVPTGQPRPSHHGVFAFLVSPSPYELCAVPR

Cytochrome P450 2C19 = Cytochrome P450 2C19 (Homo sapiens, UniProt P33261); experiment: Cytochrome panel assay with activity outcomes. Panel member name: p450-cyp2c19 Compounds with AC50 equal or less than 10 uM are considered active; assay type: functional; details: read-out: AC50
Chain of Cytochrome P450 2C19 (P33261 whole entry): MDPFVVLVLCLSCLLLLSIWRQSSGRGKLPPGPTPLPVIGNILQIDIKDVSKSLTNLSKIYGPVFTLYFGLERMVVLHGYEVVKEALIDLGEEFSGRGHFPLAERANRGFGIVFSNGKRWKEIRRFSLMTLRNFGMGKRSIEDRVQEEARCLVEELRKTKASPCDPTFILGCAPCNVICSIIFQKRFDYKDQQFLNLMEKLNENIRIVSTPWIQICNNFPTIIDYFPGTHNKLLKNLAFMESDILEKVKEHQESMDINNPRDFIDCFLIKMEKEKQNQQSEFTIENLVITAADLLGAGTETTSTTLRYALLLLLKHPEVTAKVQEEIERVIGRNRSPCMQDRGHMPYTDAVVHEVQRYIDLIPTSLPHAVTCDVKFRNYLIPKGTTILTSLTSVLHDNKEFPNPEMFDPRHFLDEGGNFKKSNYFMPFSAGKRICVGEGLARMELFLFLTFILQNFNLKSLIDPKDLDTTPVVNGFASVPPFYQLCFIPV

[3] = viability of PTEN-deleted HCT116 cells – cell-based, HCT116 PTEN knockout, dose response (AID 1047); assay type: functional;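 note: HCT116 colon tumor cells with PTEN knocked out; cells exposed to compound for 60 hours before readout; potency for loss of cell viability measured by luminescence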
[4] = viability of HCT116 lacking mutant beta-catenin – cell-based, human colon tumor, dose response (AID 1045); assay type: functional;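 note: HCT116 colon tumor cells with beta catenin knocked out; cells exposed to compound for 60 hours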
[5] = target: T1, Heat shock factor protein 1 (Mus musculus, UniProt P38532); experiment: enhancement of HSF1-driven luciferase signal – cell-based, NIH3T3, luminescence, dose retest, confirmation (AID 435004); assay type: functional;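 note: stress induced by proteasome inhibitor MG132 added 30 min after compound; luciferase reporter driven by HSF1 response element in NIH3T3 cells; actives raise luminescence as potentiators of the MG132 stress response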
T1 sequence (P38532 whole entry): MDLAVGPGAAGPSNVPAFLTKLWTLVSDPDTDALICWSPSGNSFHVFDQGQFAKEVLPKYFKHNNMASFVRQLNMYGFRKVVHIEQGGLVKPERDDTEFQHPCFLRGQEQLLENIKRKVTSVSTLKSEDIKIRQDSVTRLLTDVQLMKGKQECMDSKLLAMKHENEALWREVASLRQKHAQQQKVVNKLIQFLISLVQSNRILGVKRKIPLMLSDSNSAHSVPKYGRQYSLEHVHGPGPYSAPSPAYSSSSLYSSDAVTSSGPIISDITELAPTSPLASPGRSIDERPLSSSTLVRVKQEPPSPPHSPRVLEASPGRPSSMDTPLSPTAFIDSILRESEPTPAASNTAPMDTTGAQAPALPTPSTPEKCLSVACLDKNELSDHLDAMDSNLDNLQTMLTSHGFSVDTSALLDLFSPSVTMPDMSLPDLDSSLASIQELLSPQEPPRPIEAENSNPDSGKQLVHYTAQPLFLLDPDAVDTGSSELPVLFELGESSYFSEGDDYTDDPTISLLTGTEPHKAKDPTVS

Streptococcus = experiment: GAS UMAA2166 growth inhibition – luminescence, BacTiterGlo, counter-screen for streptokinase expression inhibitor project, dose response (AID 1915); assay type: functional, organism-based;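 note: potency for reduction of bacterial viability or growth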
[6] = tested on: Streptococcus sp. 'group A'; experiment: Streptococcus pyogenes SK(-)GAS viability under kanamycin – luminescence, BacTiterGlo, confirmation, counter-screen for streptokinase expression inhibitor project, dose response (AID 1900); assay type: functional, organism-based
Streptokinase A = target: T2, Streptokinase A (Streptococcus pyogenes serotype M1, UniProt P10520); experiment: viability-normalized secreted streptokinase activity reduction – plasminogen activation absorbance, OD405, dose response (AID 1914); assay type: functional, Streptococcus pyogenes M1 GAS;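 note: secreted streptokinase activity via plasminogen activation per viability signal from cell pellet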
T2 sequence (P10520 whole entry): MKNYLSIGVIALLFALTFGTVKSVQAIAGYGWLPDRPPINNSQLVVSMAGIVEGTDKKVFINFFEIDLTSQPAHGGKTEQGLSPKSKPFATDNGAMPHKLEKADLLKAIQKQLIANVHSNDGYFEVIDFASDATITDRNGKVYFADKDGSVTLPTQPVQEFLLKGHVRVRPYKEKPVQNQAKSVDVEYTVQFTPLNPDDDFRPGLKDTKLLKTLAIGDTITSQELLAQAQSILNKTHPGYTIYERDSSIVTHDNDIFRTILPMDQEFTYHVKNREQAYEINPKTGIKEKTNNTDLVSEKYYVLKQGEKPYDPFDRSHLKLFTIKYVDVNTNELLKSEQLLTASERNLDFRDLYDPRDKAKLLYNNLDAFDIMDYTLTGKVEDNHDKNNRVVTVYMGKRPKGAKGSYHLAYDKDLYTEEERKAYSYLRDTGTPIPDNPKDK

[7] = target: T3, Replicative DNA helicase DnaB (Mycobacterium tuberculosis, UniProt P9WMR3); experiment: DnaB intein splicing inhibitors, dose response, biochemical, cell-free fluorescence (AID 449749); assay type: functional
T3 sequence (P9WMR3 whole entry): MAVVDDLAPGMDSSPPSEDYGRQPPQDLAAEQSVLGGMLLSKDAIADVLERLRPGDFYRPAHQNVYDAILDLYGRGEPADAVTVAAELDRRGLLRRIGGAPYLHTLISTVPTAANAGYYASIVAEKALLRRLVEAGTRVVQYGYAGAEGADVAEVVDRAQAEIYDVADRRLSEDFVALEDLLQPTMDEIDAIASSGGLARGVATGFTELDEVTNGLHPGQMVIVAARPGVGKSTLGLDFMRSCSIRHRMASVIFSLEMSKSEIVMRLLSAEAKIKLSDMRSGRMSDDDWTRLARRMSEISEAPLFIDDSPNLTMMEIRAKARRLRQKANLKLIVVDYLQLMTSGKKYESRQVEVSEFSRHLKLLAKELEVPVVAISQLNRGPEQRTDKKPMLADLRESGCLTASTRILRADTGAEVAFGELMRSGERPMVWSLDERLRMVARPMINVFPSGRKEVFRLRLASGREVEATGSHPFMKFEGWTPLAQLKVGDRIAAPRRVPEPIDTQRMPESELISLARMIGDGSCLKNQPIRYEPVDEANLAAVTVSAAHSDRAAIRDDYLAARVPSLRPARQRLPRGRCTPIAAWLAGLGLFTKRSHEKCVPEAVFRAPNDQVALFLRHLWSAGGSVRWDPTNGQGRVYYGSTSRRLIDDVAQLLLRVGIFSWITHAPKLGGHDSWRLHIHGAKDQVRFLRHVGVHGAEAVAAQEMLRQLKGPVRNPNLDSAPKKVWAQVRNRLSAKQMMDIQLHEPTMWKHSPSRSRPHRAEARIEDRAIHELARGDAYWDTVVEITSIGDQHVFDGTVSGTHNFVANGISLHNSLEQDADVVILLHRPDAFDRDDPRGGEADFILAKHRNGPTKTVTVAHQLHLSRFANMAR

Protein RecA = target: T4, Protein RecA (Mycobacterium tuberculosis, UniProt P9WHJ3); experiment: Fluorescence Cell-Free Homogeneous Dose Retest to Identify Inhibitors of RecA-Intein Splicing Activity. [Related pubchem assays (depositor defined):AID2097, AID2223, AID489010, AID492950]; assay type: functional
T4 sequence (P9WHJ3 whole entry): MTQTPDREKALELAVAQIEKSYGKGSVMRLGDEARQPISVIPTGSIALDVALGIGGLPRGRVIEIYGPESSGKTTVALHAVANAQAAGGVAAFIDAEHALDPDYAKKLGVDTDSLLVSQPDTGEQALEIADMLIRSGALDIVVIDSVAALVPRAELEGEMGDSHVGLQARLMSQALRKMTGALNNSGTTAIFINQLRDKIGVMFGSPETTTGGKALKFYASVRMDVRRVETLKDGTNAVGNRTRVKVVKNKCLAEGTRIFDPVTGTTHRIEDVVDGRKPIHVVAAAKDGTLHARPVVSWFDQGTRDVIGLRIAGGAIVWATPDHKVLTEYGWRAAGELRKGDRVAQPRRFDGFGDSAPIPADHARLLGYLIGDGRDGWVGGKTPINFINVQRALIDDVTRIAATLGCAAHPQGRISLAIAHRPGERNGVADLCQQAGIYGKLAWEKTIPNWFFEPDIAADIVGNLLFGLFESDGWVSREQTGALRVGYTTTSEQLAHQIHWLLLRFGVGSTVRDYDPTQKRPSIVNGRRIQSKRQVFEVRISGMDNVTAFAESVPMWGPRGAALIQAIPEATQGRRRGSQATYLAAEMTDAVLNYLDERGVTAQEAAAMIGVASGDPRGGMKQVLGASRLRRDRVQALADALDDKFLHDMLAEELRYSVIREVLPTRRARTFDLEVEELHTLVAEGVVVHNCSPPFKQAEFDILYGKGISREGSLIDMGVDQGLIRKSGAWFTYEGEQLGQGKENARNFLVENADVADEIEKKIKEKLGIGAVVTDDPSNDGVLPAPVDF

[8] = target: T1, Heat shock factor protein 1; experiment: decrease of HSF1-responsive luciferase luminescence – cell-based, NIH3T3, dose retest, confirmation (AID 2382); assay type: functional;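 note: NIH3T3 fibroblasts with HSF1-driven luciferase reporter stressed by proteasome inhibitor MG132; luminescence from HSF1-driven luciferase expression after 8 hours of MG132 stress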

Structure (SMILES)	EC50 [1]	EC50 (H4)	EC50 [2]	also measured
Cc1nc2ccccc2c(=O)n1-c1ccc(Br)cn1	> 120 µM (not active)	> 120 µM (not active)	> 120 µM (not active)	–
Cc1cccc(N=Nc2c[nH]nc2-c2ccco2)c1	29.5 µM (active)	73.5 µM (active)	14.7 µM (active)	–
CCN(c1ccccc1)S(=O)(=O)c1ccc(NC(=S)NC(=O)c2ccc(Br)o2)cc1	–	–	–	AC50 (Cytochrome P450 2D6): 3.16 µM (inconclusive)
CCNc1ncc2nc(-c3ccc(F)cc3)c(=O)n(C[C@H]3CCCO3)c2n1	–	–	–	AC50 (Cytochrome P450 2D6): 0.631 µM (inconclusive)
CCCCNC(=O)Cn1nc([N+](=O)[O-])c([N+](=O)[O-])c1C	> 120 µM (not active)	35.2 µM (active)	11.1 µM (active)	–
O=C(O)c1ccc(Cn2cnc3scc(-c4ccccc4)c3c2=O)cc1	9.7 µM (active)	> 120 µM (not active)	> 120 µM (not active)	–
CSc1nncn1/N=C/c1ccc2c(c1)OCO2	–	–	–	AC50 (Cytochrome P450 2D6): 22.4 µM (inconclusive); AC50 (Cytochrome P450 2C19): 25.1 µM (inconclusive)
Cc1ccc(-c2csc(NC(=O)CSc3n[nH]c4c5ccccc5nc-4n3)n2)cc1	–	–	–	EC50 [3]: 24.1 µM (active); EC50 [4]: 21.9 µM (active)
Cc1ccc(Cn2ccnc2C(=O)Nc2ccccc2)cc1	30.4 µM (active)	–	58 µM (active)	–
Cc1ccc(C)n1-c1ccc(C(=O)Nc2ccccc2F)cc1	11.6 µM (active)	14.5 µM (active)	43.1 µM (active)	–
Cc1ccc(NC2=C(C(=O)Nc3c(C)cc(C)cc3C)C(=N)C(C(=O)Nc3ccc(OC(F)(F)F)cc3)S2)cc1 (centres undefined)	–	–	–	EC50 [3]: 40 µM (active); EC50 [4]: 42.8 µM (active)
CCCn1c(SCc2nc(O)c3c(C)c(C)sc3n2)nc2ccccc2c1=O	–	–	–	EC50 [3]: 11.8 µM (active); EC50 [4]: 12.5 µM (active); EC50 [5]: 71.9 µM (active)
Cc1ccc(C(C(=O)NC2CCCC2)N(C(=O)Cc2cccs2)c2ccc3c(c2)OCCO3)cc1 (centres undefined)	–	–	–	EC50 [3]: 46.5 µM (active); EC50 [4]: 62.8 µM (active)
Cc1ccc(-n2c([S-])c(C(=O)Nc3ccc(OC(F)F)cc3)[n+]3ccc(C(=O)NCCO)cc23)cc1C	7.99 µM (active)	21.3 µM (active)	> 120 µM (not active)	–
COc1ccc(/N=C2/C(=N\c3ccc(OC)cc3)N(c3ccccc3)C(=S)N2C(=O)c2ccc(Cl)cc2)cc1	41.1 µM (active)	18.7 µM (active)	47.3 µM (active)	–
CC(C)(C)c1ccc(-c2noc(-c3ccc4c(c3)CCO4)n2)cc1	0.493 µM (active)	0.553 µM (active)	2.25 µM (active)	EC50 (Streptococcus): > 150 µM (not active); EC50 [6]: 5.26 µM (active); EC50 (Streptokinase A): 46 µM (active)
COc1ccc(C(CCN(Cc2ccc(OC)c(OC)c2)C(=O)CCl)c2ccccc2)cc1 (centres undefined)	–	–	–	AC50 [7]: 1.12 µM (active); EC50 [3]: 3.07 µM (active); EC50 [4]: 3 µM (active); EC50 (Protein RecA): 0.269 µM (active); EC50 [8]: 3.19 µM (active)
Cn1c(SCC(=O)N2CCCCC2)nc2c3ccccc3nc-2c1O	–	–	–	EC50 [3]: 22.3 µM (active); EC50 [4]: 35.8 µM (active)
Cc1csc(SCC(=O)c2c(N)n(C)c(=O)n(C)c2=O)n1	2.14 µM (active)	> 120 µM (not active)	29.5 µM (active)	–
Cc1ccc(N/C([S-])=C(/C(=O)c2ccc(F)cc2)[n+]2ccccc2)cc1	–	–	–	AC50 [7]: > 380 µM (inactive); EC50 (Protein RecA): 69.7 µM (active)
CCOC(=O)C/C(C)=N/NC(=O)COc1ccccc1C	–	–	–	AC50 [7]: 4.39 µM (active); EC50 (Protein RecA): 2.36 µM (active)
COc1ccc(-c2cc(C(F)F)nc(-n3nc(C)cc3C)n2)cc1	–	–	–	AC50 (Cytochrome P450 2D6): 22.4 µM (inconclusive)
C=C1C[C@@H]2[C@H](CC[C@]3(C)C(=O)CC[C@@H]23)[C@@]2(C)C=CC(=O)C=C12 [EXEMESTANE]	2.79 µM (active)	26.7 µM (active)	6.44 µM (active)	–
Oc1ccc(Cl)cc1/C=N\c1cnc2ccccc2c1	–	–	–	AC50 (Cytochrome P450 2D6): 5.01 µM (inconclusive)
Cc1cc(C)nc(Sc2ccc3nnnn3n2)n1	24.7 µM (active)	11.3 µM (active)	22.5 µM (active)	–
